Data set [1] relates to SH-SY5Y. The data set can be described thus: Cytotoxicity against human SH-SY5Y cells assessed as inhibition of cell viability incubated for 48 hrs by CCK8 assay. Format: functional, cell-based. Background: Formazan colour is commonly taken as a measure of viable cells.
For data set [2], the system named is N2a. The data set can be described thus: Cytotoxicity against mouse Neuro2a cells assessed as inhibition of cell viability incubated for 48 hrs by CCK8 assay. Format: functional, cell-based.
In data set [3] the test system is PC-12. Nature of the data set: Cytotoxicity against rat PC12 cells assessed as inhibition of cell viability incubated for 48 hrs by CCK8 assay. It is filed as functional, cell-based. Particulars: PC-12, 48 h.
Data set [4] has as its system U-87 MG. The data set can be described thus: Cytotoxicity against human U-87 MG cells assessed as inhibition of cell viability incubated for 48 hrs by CCK8 assay. Format: functional, cell-based, U-87MG ATCC.
Data set [5] deals with A-431. Nature of the data set: Effect on Rac2 gene expression in human A-431 cells by RNA-Seq analysis. Format: functional, cell-based.
Data set [6] has as its system N2a. The data set can be described thus: Downregulation of Wnt7b level in mouse Neuro2a cells at 50 uM incubated for 48 hrs by Western blot analysis. It is filed as functional, cell-based.
A short description of data set [7]: Clearance in C57BL/6 mouse at 10 mg/kg, iv measured for 24 hrs. It is filed as ADME, organism-based. The settings on record: in vivo.
Data set [8] concerns N2a. Nature of the data set: Induction of cell proliferation in mouse Neuro2a cells at 50 uM incubated for 48 hrs by CCK8 assay. It is filed as functional, cell-based.
In data set [9] the test system is Neuron. The data set can be described thus: Induction of neurite growth in mouse primary neurons at 50 uM incubated for 48 hrs in presence of NGF by imaging analysis. Format: functional, cell-based.
Data set [10] can be described thus: Half life in C57BL/6 mouse at 10 mg/kg, iv measured for 24 hrs. It is filed as ADME, organism-based. Particulars: in vivo.
For data set [11], the system named is Neuron. The data set can be described thus: Induction of neurite growth in mouse primary neurons assessed as increase in neurite length at 50 uM incubated for 48 hrs by imaging analysis. Format: functional, cell-based.
Data set [12] relates to A-431. The data set can be described thus: Effect on Wnt7b gene expression in human A-431 cells by RNA-Seq analysis. It is filed as functional, cell-based.
For data set [13], the system named is N2a. The data set can be described thus: Effect on […] level in mouse Neuro2a cells at 50 uM incubated for 48 hrs by Western blot analysis. It is filed as functional, cell-based.
In data set [14] the test system is Neuron. The data set can be described thus: Induction of neurite growth in mouse primary neurons assessed as increase in MAP2 level incubated for 48 hrs in presence of NGF by Western blot analysis. It is filed as functional, cell-based. Background: In western blotting, separated proteins are transferred to a membrane and probed.
The test system of data set [15] is SH-SY5Y. Nature of the data set: Neuroprotective effect against MPP+-induced cytotoxicity in human SH-SY5Y cells assessed as increase in cell viability at 50 uM incubated for 24 hrs followed by MPP+ addition measured after 4 hrs by CCK8 assay relative to control. Format: functional. Particulars: time 28 hrs.

Each structure is given as a SMILES string. Active and inactive are the calls of the source. Where only a bound is given, the exact number is not on record here.

In general, IC50 refers to the concentration needed to halve the response being measured. `CCCCCCCCCCCCC/C=C/[C@@H](O)[C@H](CO[C@@H]1O[C@H](CO)[C@@H](O[C@@H]2O[C@H](CO)[C@H](O)[C@H](O[C@]3(C(=O)O)C[C@H](O)[C@@H](NC(=O)Cc4ccc(Br)cc4)C([C@@H](O)[C@H](O)CO)O3)[C@H]2O)[C@H](O)[C@H]1O)NC(=O)CCCCCCCCCCCCCCCCC` (some centres not stated): the IC50 in [1], in data set [2], in [3] and in data set [4] was over 200 µM in each case.

One may read the half-life as the time needed for the level to fall by half in the phase considered. A high value points to slow decline. For the molecule `CCCCCCCCCCCCC/C=C/[C@@H](O)[C@H](CO[C@@H]1O[C@H](CO)[C@@H](O[C@@H]2O[C@H](CO)[C@H](O)[C@H](O[C@]3(C(=O)O)C[C@H](O)[C@@H](NC(=O)Cc4cccc([N+](=O)[O-])c4)C([C@@H](O)[C@H](O)CO)O3)[C@H]2O)[C@H](O)[C@H]1O)NC(=O)CCCCCCCCCCCCCCCCC` (some centres not stated), the outcome in data set [5], in [6], in data set [8], in data set [9], in data set [11] and in data set [12] was Active. Besides, in [14], the result was Active. For the same molecule, in data set [7], the CL was 0.467 µL/min/mg. Moreover, the IC50 in [1], in data set [2], in [3] and in [4] was over 200 µM throughout. In addition, in data set [10], the half-life was 49.3 h. The outcome in data set [13] was inactive. Besides, the Activity in data set [15] stood at 18.8%.

Take `CCCCCCCCCCCCC/C=C/[C@@H](O)[C@H](CO[C@@H]1O[C@H](CO)[C@@H](O[C@@H]2O[C@H](CO)[C@H](O)[C@H](O[C@]3(C(=O)O)C[C@H](O)[C@@H](NC(=O)c4cccc([N+](=O)[O-])c4)C([C@@H](O)[C@H](O)CO)O3)[C@H]2O)[C@H](O)[C@H]1O)NC(=O)CCCCCCCCCCCCCCCCC` (some centres not stated): the outcome in data set [8] was Active. The IC50 in data set [1], in [2], in data set [3] and in data set [4] was over 200 µM in each case. In addition, the Activity in [15] amounted to 9.3%.

`CCCCCCCCCCCCC/C=C/[C@@H](O)[C@H](CO[C@@H]1O[C@H](CO)[C@@H](O[C@@H]2O[C@H](CO)[C@H](O)[C@H](O[C@]3(C(=O)O)C[C@H](O)[C@@H](NC(=O)c4cc(C)cc(C)c4)C([C@@H](O)[C@H](O)CO)O3)[C@H]2O)[C@H](O)[C@H]1O)NC(=O)CCCCCCCCCCCCCCCCC` (some centres not stated): the IC50 in data set [1], in [2], in data set [3] and in data set [4] was over 200 µM in each case.

Take `CCCCCCCCCCCCC/C=C/[C@@H](O)[C@H](CO[C@@H]1O[C@H](CO)[C@@H](O[C@@H]2O[C@H](CO)[C@H](O)[C@H](O[C@]3(C(=O)O)C[C@H](O)[C@@H](NC(=O)Cc4ccc(C)cc4)C([C@@H](O)[C@H](O)CO)O3)[C@H]2O)[C@H](O)[C@H]1O)NC(=O)CCCCCCCCCCCCCCCCC` (some centres not stated): the IC50 in data set [1], in [2], in [3] and in data set [4] was over 200 µM each time.

As to `CCCCCCCCCCCCC/C=C/[C@@H](O)[C@H](CO[C@@H]1O[C@H](CO)[C@@H](O[C@@H]2O[C@H](CO)[C@H](O)[C@H](O[C@]3(C(=O)O)C[C@H](O)[C@@H](NC(=O)c4ccncc4)C([C@@H](O)[C@H](O)CO)O3)[C@H]2O)[C@H](O)[C@H]1O)NC(=O)CCCCCCCCCCCCCCCCC` (some centres not stated), the IC50 in data set [1], in [2], in data set [3] and in [4] was over 200 µM each time.
